Like-named read-outs stand apart in the source and are kept apart here.
How the values were obtained:
EGFR WT = EGFR WT (Homo sapiens, UniProt P00533); assay: EGFR WT kinase test (mobility variation analysis, Caliper EZ Reader); assay type: biochemical; details: kinase enzymatic activity, Table 1
Method in brief: (§1)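 Read-out is substrate-to-product conversion by mobility shift, stopped after incubation at room temperature with ATP and substrate, following a 10-minute room-temperature compound–enzyme pre-incubation. IC50 obtained by four-parameter variable-slope fitting of inhibition normalized between enzyme-free and uninhibited controls.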

[1] = target: Ba/F3-EGFR wild-type cell line (Homo sapiens, UniProt P00533); assay: Ba/F3-EGFR wild-type cell proliferation assay (CellTiter Glo, 72 hours); assay type: cell-based; details: Table 2, read-out: EGFR WT IC50
Ba/F3-EGFR wild-type cell line, sequence (P00533 whole entry, stated change not applied): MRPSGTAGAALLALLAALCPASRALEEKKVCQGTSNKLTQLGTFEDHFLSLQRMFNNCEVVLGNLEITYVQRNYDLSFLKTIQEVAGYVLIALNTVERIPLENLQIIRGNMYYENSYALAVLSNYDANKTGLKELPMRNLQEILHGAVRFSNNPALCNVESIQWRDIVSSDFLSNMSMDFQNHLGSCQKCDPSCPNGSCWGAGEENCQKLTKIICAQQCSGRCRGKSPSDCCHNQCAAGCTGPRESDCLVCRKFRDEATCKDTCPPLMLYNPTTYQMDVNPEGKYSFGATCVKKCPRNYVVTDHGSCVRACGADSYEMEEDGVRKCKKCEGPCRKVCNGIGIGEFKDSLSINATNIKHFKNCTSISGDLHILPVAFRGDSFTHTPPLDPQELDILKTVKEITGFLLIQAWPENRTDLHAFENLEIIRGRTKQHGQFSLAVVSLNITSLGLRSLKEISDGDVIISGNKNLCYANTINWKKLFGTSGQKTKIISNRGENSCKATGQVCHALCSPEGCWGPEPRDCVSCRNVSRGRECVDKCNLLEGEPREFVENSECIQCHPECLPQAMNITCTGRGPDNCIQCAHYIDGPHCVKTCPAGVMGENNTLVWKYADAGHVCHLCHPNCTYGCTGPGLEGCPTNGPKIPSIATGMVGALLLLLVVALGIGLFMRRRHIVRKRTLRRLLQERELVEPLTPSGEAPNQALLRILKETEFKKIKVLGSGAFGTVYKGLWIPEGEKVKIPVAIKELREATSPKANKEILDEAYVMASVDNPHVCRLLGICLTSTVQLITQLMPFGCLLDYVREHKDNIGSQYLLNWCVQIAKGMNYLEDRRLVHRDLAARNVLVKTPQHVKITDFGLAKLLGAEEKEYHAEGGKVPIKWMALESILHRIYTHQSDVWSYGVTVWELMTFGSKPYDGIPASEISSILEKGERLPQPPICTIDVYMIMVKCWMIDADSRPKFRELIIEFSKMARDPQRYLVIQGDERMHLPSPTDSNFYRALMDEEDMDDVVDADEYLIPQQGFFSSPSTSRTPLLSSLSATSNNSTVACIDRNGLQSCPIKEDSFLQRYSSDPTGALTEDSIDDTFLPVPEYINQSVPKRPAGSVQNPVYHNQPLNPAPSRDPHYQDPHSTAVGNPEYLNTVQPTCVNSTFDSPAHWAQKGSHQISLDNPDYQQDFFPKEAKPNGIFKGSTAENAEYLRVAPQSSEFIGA
Method in brief: (§2)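 Ba/F3 cells stably overexpressing wild-type EGFR or EGFR Δ19del/T790M/C797S were seeded at 2000 cells/well and incubated 72 h with compound. Viability was read by CellTiter-Glo luminescence, and IC50 came from a four-parameter logistic fit of signal against log concentration.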

A431 = A431 cell proliferation assay (CellTiter Glo, 72 hours); assay type: cell-based; details: cell proliferation, A431, 72 hours, Table 2, read-out: A431 IC50
Method in brief: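 Luminescence (CellTiter-Glo) after 72 h treatment gives viability, fitted by nonlinear regression to yield IC50. Cells seeded at 2000 per well; nine 3-fold concentrations from 1000 nM, DMSO final 0.1% (0.5% for certain compounds).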

[2] = target: Ba/F3 cells with EGFR Δ19del/T790M/C797S mutation gene stably overexpressed (Homo sapiens, UniProt P00533, T790M/C797S, cells depend on it, form not given); assay: Ba/F3-Δ19del/T790M/C797S cell proliferation assay (CellTiter Glo, 72 hours); assay type: cell-based; details: Table 2, read-out: EGFR Δ19del/T790M/C797S IC50
Ba/F3 cells with EGFR Δ19del/T790M/C797S mutation gene stably overexpressed, sequence (P00533 with tags, fused parts or gaps DEL746-750/T790M/C797S, form open): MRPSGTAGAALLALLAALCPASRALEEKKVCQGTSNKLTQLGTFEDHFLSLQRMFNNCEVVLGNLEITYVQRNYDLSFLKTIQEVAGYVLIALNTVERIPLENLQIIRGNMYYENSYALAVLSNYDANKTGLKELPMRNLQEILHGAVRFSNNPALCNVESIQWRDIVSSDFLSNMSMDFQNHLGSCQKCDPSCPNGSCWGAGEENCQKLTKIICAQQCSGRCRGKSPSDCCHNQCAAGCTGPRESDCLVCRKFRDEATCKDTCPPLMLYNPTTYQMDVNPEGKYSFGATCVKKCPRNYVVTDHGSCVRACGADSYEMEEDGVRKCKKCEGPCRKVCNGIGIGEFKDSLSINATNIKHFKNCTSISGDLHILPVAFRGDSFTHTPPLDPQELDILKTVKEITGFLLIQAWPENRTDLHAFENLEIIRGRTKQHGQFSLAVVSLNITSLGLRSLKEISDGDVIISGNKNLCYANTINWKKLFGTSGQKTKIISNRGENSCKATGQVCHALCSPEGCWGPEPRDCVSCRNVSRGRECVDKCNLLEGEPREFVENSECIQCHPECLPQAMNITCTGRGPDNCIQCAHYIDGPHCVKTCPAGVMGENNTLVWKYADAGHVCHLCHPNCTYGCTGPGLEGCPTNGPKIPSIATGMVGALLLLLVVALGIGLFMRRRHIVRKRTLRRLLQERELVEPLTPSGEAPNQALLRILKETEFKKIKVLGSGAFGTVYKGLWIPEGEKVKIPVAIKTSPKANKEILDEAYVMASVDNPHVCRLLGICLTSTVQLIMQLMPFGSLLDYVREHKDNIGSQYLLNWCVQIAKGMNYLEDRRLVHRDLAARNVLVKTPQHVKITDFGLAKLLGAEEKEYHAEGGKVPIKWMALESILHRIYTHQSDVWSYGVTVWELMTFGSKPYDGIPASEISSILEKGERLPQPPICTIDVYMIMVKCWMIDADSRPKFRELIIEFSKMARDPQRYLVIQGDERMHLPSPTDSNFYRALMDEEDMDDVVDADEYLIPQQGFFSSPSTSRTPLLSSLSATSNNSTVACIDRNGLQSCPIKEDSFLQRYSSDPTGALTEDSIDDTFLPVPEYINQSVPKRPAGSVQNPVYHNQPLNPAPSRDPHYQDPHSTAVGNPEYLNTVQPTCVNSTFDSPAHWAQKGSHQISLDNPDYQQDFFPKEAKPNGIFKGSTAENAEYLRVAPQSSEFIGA
Method in brief: as §2

EGFRΔ19del/T790M/C797S = EGFRΔ19del/T790M/C797S (Homo sapiens, UniProt P00533, T790M/C797S, form not given); assay: EGFR Δ19del/T790M/C797S kinase test (mobility variation analysis, Caliper EZ Reader); assay type: biochemical; details: kinase enzymatic activity, Table 1
Method in brief: as §1

IGF1R = IGF1R (Homo sapiens, UniProt P08069); assay: IGF1R kinase test (mobility variation analysis, Caliper EZ Reader); assay type: biochemical; details: kinase enzymatic activity, Table 1; read-out: EGFR IGF1R IC50
IGF1R, sequence (P08069 31-1367, species assumed): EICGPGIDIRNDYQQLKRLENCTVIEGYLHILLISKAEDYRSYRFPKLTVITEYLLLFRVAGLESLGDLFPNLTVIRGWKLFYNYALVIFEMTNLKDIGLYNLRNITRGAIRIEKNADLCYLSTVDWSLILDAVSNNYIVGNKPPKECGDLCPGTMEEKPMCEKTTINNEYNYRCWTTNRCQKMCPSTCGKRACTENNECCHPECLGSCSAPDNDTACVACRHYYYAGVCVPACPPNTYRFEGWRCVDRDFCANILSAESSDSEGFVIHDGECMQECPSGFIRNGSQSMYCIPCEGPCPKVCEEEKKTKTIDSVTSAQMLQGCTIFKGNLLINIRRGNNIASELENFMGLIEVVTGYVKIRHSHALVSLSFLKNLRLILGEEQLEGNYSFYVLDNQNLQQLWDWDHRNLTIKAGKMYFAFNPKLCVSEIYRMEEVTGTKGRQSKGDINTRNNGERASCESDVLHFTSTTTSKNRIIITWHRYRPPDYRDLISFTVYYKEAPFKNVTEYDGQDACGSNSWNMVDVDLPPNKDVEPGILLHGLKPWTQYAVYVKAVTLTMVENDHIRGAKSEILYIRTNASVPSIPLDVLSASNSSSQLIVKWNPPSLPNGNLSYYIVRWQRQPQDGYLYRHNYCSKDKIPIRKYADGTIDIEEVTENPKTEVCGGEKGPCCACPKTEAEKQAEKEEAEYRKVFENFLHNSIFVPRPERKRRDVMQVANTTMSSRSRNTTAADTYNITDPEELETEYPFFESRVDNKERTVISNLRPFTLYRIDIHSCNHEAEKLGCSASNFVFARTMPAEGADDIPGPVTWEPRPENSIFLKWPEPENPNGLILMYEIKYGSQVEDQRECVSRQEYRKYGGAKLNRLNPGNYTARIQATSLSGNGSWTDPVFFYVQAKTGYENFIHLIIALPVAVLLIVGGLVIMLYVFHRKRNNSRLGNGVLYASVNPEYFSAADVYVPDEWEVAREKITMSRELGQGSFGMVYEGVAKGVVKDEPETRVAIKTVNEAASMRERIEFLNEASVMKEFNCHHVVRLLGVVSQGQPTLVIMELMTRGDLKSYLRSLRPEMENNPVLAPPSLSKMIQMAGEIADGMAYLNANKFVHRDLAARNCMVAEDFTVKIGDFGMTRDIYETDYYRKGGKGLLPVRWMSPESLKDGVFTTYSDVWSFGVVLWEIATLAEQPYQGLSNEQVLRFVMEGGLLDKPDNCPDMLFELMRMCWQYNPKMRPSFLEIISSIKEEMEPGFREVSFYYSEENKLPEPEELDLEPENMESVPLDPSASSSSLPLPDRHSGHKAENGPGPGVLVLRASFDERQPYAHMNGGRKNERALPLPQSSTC
Method in brief: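 Mobility-shift readout of substrate conversion, normalised to positive (no compound) and negative (no kinase) controls, gives % inhibition and IC50 by four-parameter fit. Compounds, 3-fold dilutions over 10 concentrations starting at 3000 nM, preincubated 10 min with kinase before ATP/substrate start; room temperature.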

EGFR WT, sequence (P00533 25-1210): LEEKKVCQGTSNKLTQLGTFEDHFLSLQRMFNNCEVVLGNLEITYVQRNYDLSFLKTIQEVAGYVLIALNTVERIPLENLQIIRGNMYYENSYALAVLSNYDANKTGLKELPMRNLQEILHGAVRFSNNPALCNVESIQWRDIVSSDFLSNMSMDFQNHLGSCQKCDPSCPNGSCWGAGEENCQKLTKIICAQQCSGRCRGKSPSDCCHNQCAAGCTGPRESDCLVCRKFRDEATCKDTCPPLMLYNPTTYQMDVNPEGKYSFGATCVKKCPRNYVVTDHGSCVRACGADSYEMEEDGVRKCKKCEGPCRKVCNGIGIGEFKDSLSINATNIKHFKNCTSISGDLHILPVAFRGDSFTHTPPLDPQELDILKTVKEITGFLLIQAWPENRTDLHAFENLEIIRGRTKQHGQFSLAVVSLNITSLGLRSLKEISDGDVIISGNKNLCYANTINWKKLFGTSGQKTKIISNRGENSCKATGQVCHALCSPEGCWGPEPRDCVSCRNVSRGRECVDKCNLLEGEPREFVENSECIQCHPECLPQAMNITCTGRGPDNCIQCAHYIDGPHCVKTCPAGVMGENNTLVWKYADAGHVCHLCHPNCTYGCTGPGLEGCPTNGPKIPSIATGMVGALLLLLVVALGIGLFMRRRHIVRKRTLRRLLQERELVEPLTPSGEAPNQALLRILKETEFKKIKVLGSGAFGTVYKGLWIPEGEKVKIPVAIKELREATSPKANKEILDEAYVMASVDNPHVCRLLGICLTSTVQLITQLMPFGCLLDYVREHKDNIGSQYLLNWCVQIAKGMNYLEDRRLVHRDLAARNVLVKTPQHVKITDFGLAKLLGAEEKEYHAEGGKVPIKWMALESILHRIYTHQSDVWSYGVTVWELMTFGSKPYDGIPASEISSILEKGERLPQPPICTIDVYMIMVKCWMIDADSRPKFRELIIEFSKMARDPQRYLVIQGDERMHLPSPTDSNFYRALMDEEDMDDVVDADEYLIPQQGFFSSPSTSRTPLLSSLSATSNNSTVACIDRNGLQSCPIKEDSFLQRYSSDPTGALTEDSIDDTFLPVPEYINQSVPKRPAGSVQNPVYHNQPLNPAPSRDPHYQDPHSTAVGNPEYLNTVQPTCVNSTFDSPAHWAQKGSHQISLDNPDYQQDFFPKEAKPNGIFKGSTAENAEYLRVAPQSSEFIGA

| SMILES | IC50 (EGFR WT) | GI50 [1] | IC50 (A431; Homo sapiens, A-431, 72 h) | GI50 [2] | IC50 (EGFRΔ19del/T790M/C797S) | IC50 (IGF1R) | IC50 (A431) |
| --- | --- | --- | --- | --- | --- | --- | --- |
| CCc1cc(Nc2ncc(Cl)c(Nc3ccc(-c4ncc(OC)cn4)cc3P(C)(C)=O)n2)c(OC)cc1N1CCC(N2CCN(C)CC2)CC1 [Compound 20, (2-((5-Chloro-2-((5-ethyl-2-methoxy-4-(4-(4-methylpiperazin-1-yl)piperidin-1-yl)phenyl)amino)pyrimidin-4-yl)amino)-5-(5-methoxypyrimidin-2-yl)phenyl)dimethylphosphine oxide] | 0.019 µM | 0.365 µM | 1.47 µM | 0.0118 µM | 0.0005 µM | 0.12 µM |  |
| CCOc1cnc(-c2ccc(Nc3nc(Nc4cc(CC)c(N5CCC(N6CCN(C)CC6)CC5)cc4OC)ncc3Br)c(P(C)(C)=O)c2)nc1 [Compound 75] | 0.016 µM | 1.01 µM | > 10 µM | 0.0168 µM | 0.0005 µM | 0.091 µM |  |
| CCc1cc(Nc2ncc(Br)c(Nc3ccc(-c4cnc(OC)nc4)cc3P(C)(C)=O)n2)c(OC)cc1N1CCC(N2CCN(C)CC2)CC1 [Compound 34, (2-((5-Bromo-2-((5-ethyl-2-methoxy-4-(4-(4-methylpiperazin-1-yl)piperidin-1-yl)phenyl)amino)pyrimidin-4-yl)amino)-5-(2-methoxypyrimidin-5-yl)phenyl)dimethylphosphine oxide] | 0.0297 µM | 0.18 µM | 5.15 µM | 0.0058 µM | 0.0002 µM | 0.0911 µM |  |
| CCc1cc(Nc2ncc(Br)c(Nc3ccc(-c4cnc(N(C)C)cn4)cc3P(C)(C)=O)n2)c(OC)cc1N1CCC(N2CCN(C)CC2)CC1 [Compound 35, (2-((5-Bromo-2-((5-ethyl-2-methoxy-4-(4-(4-methylpiperazin-1-yl)piperidin-1-yl)phenyl)amino)pyrimidin-4-yl)amino)-5-(5-(dimethylamino)pyrazin-2-yl)phenyl)dimethylphosphine oxide] | 0.0215 µM | 0.259 µM | > 10 µM | 0.0031 µM | 0.0005 µM | 0.238 µM |  |
| CCc1cc(Nc2ncc(Br)c(Nc3ccc(-c4ncn(C)n4)cc3P(C)(C)=O)n2)c(OC)cc1N1CCC(N2CCN(C)CC2)CC1 [Compound 31, (2-((5-Bromo-2-((5-ethyl-2-methoxy-4-(4-(4-methylpiperazin-1-yl)piperidin-1-yl)phenyl)amino)pyrimidin-4-yl)amino)-5-(1-methyl-1H-1,2,4-triazol-3-yl)phenyl)dimethylphosphine oxide] | 0.0276 µM | 0.559 µM | 1.03 µM | 0.0208 µM | 0.0003 µM | 0.179 µM |  |
| CCc1cc(Nc2ncc(Br)c(Nc3ccc(-c4ncco4)cc3P(C)(C)=O)n2)c(OC)cc1N1CCC(N2CCN(C)CC2)CC1 [Compound 27] | 0.0156 µM | 0.159 µM | 0.871 µM | 0.0075 µM | 0.0003 µM | 0.072 µM |  |
| CCc1cc(Nc2ncc(Br)c(Nc3ccc(-c4ncccn4)cc3P(C)(C)=O)n2)c(OC)cc1N1CCC(N2CCN(C)CC2)CC1 [Compound 26, (2-((5-Bromo-2-((5-ethyl-2-methoxy-4-(4-(4-methylpiperazin-1-yl)piperidin-1-yl)phenyl)amino)pyrimidin-4-yl)amino)-5-(pyrimidin-2-yl)phenyl)dimethylphosphine oxide] | 0.0189 µM | 0.162 µM | 1.03 µM | 0.0051 µM | 0.0004 µM | 0.102 µM |  |
| CCc1cc(Nc2ncc(Br)c(Nc3ccc(-c4cnc5c(ccn5C)c4)cc3P(C)(C)=O)n2)c(OC)cc1N1CCC(N2CCN(C)CC2)CC1 [Compound 55] | 0.0364 µM | 1.07 µM | 2.96 µM | 0.035 µM | 0.0015 µM | 0.497 µM |  |

More lines, now with the values ahead:

| IC50 (EGFR WT) | GI50 [1] | IC50 (A431; Homo sapiens, A-431, 72 h) | GI50 [2] | IC50 (EGFRΔ19del/T790M/C797S) | IC50 (IGF1R) | IC50 (A431) | SMILES |
| --- | --- | --- | --- | --- | --- | --- | --- |
| 0.012 µM | 0.046 µM | 5.22 µM | 0.0026 µM | 0.00019 µM | 0.035 µM |  | COc1cc(Nc2ncc(Br)c(Nc3ccc(-c4cnn(C)n4)c(F)c3P(C)(C)=O)n2)c(C)cc1N1CCC(N2CCN(C)CC2)CC1 [Compound K-012, (6-((5-Bromo-2-((5-methoxy-2-methyl-4-(4-(4-methylpiperazin-1-yl)piperidin-1-yl)phenyl)amino)pyrimidin-4-yl)amino)-2-fluoro-3-(2-methyl-2H-1,2,3-triazol-4-yl)phenyl)diniethylphosphine oxide] |
| 0.0274 µM | 0.178 µM | 0.953 µM | 0.0136 µM | 0.0002 µM | 0.0566 µM |  | COc1cc(Nc2ncc(Br)c(Nc3ccc(-c4cnn(C)n4)cc3P(C)(C)=O)n2)c(C)cc1N1CCOCC1 [Compound K-015, (2-((5-Bromo-2-((5-methoxy-2-methyl-4-morpholinophenyl)amino)pyrimidin-4-yl)amino)-5-(2-methyl-2H-1,2,3-triazol-4-yl)phenyl)dimethylphosphine oxide] |
| 0.039 µM | 0.22 µM | > 10 µM | 0.0126 µM | 0.00023 µM | 0.069 µM |  | COc1cc(Nc2ncc(Br)c(Nc3ccc(-c4cnn(C)n4)c(F)c3P(C)(C)=O)n2)c(C)cc1N1CCOCC1 [Compound K-025, (6-((5-Bromo-2-((5-methoxy-2-methyl-4-morpholinophenyl)amino)pyrimidin-4-yl)amino)-2-fluoro-3-(2-methyl-2H-1,2,3-triazol-4-yl)phenyl)dimethylphosphine oxide] |
| 0.0358 µM | 0.267 µM | 2.76 µM | 0.0042 µM | 0.0004 µM | 0.253 µM |  | CCc1cc(Nc2ncc(Br)c(Nc3ccc(-c4ccc(OC)cn4)cc3P(C)(C)=O)n2)c(OC)cc1N1CCC(N2CCN(C)CC2)CC1 [Compound K-074, (2-((5-Bromo-2-((5-ethyl-2-methoxy-4-(4-(4-methylpiperazin-1-yl)piperidin-1-yl)phenyl)amino)pyrimidin-4-yl)amino)-5-(5-methoxypyridin-2-yl)phenyl)dimethylphosphine oxide] |
| 0.021 µM | 0.268 µM | 2.46 µM | 0.0164 µM | 0.00023 µM | 0.165 µM |  | C#Cc1cnn(-c2ccc(Nc3nc(Nc4cc(CC)c(N5CCC(N6CCN(C)CC6)CC5)cc4OC)ncc3Br)c(P(C)(C)=O)c2)c1 [Compound K-009, (2-((5-Bromo-2-((5-ethyl-2-methoxy-4-(4-(4-methylpiperazin-1-yl)piperidin-1-yl)phenyl)amino)pyrimidin-4-yl)amino)-5-(4-ethynyl-1H-pyrazol-1-yl)phenyl)dimethylphosphine oxide] |
| 0.015 µM | 0.169 µM | 0.415 µM | 0.0048 µM | 0.00024 µM | 0.12 µM |  | COc1cc(N2CCC(N3CCN(C)CC3)CC2)c(C)cc1Nc1ncc(Br)c(Nc2ccc(-c3cnn(C)n3)cc2P(C)(C)=O)n1 [Compound K-008, (2-((5-Bromo-2-((2-methoxy-5-methyl-4-(4-(4-methylpiperazin-1-yl)piperidin-1-yl)phenyl)amino)pyrimidin-4-yl)amino)-5-(2-methyl-2H-1,2,3-triazol-4-yl)phenyl)dimethylphosphine oxide] |
| 0.0428 µM | 0.145 µM | 1.68 µM | 0.0186 µM | 0.0003 µM | 0.0487 µM |  | CCOc1cc(Nc2ncc(Br)c(Nc3ccc(-c4ccc(C)cn4)cc3P(C)(C)=O)n2)c(C)cc1N1CCOCC1 [Compound K-035, (2-((5-Bromo-2-((5-ethoxy-2-methyl-4-morpholinophenyl)amino)pyrimidin-4-yl)amino)-5-(5-methylpyridin-2-yl)phenyl)dimethylphosphine oxide] |
| 0.0294 µM | 0.218 µM |  | 0.021 µM | 0.0003 µM | 0.18 µM | 2.54 µM | CCc1cc(Nc2ncc(Br)c(Nc3ccc(-c4ccc(C)cn4)cc3P(C)(C)=O)n2)c(OC)cc1N1CCC(N2CCN(C)CC2)CC1 [Compound K-071, (2-((5-Bromo-2-((5-ethyl-2-methoxy-4-(4-(4-methylpiperazin-1-yl)piperidin-1-yl)phenyl)amino)pyrimidin-4-yl)amino)-5-(5-methylpyridin-2-yl)phenyl)dimethylphosphine oxide] |
| 0.0052 µM | 0.13 µM | 1.44 µM | 0.0032 µM | 0.0001 µM | 0.0549 µM |  | CCc1cc(Nc2ncc(Br)c(Nc3ccc(-c4cnn(C)n4)c(F)c3P(C)(C)=O)n2)c(OC)cc1N1CCC(N2CCN(C)CC2)CC1 [Compound K-007, (6-((5-Bromo-2-((5-ethyl-2-methoxy-4-(4-(4-methylpiperazin-1-yl)piperidin-1-yl)phenyl)amino)pyrimidin-4-yl)amino)-2-fluoro-3-(2-methyl-2H-1,2,3-triazol-4-yl)phenyl)dimethylphosphine oxide] |

Reference: patent US20220402948A1, “EGFR INHIBITOR, COMPOSITION AND PREPARATION METHOD THEREFOR” (BETTA PHARMACEUTICALS CO., LTD., priority 2019, published 2022)
